Laboratory results reported in patent US20100056519A1, “COMPOSITION AND METHOD FOR REDUCING PLATELET ACTIVATION AND FOR THE TREATMENT OF THROMBOTIC EVENTS” (priority 2008, published 2010).

Key:
Assay type in all cases: cell-based, human
PECAM-1 (CD31) [1] = assay: Unstimulated whole blood flow cytometry, PECAM-1; conditions: for PECAM-1 (CD31), Mean Fluorescence Intensity: unstimulated, Mean ± SD
Procedure: (§1) The methodology employed was conventional aggregation induced by 5 μM ADP, 1 μg/ml collagen, 10 μM TRAP, whole blood aggregation with 1 μg/ml collagen, Ultegra, and PFA-100 Analyzers, expression of 14 intact, and TRAP-stimulated major receptors by whole blood flow cytometry were utilized to assess platelet activity after preincubation with escalating concentrations of E5555 (20 ng/ml, 50 ng/ml, and 100 ng/ml). The experiments were performed in healthy volunteers, CAD patients treated with ASA, and CAD patients treated with ASA and clopidogrel combination (n=10, for each group).
(§2) An Informed Consent was obtained from all volunteers. Drug users were excluded from data analysis. The study was approved by Quorum Institutional Review Board. All subjects underwent blood sampling after at least 30 minutes of rest and two or more hours of fasting. Blood (28 ml) was drawn between 8 and 10 a.m. in order to avoid any diurnal influence and sampled from an antecubital vein using a 21-gauge butterfly needle containing 3.2% sodium citrate (1:9 volume) after having discarded the first 1.5 ml of free running blood. Four Vacutainer tubes (7.0 ml) were collected for a total of 28 ml of whole blood-citrate mixture from each study participant. Chronologically, blood samples were delivered to the core laboratory facility within 45 minutes after drawing. Then all tubes of blood-citrate mixture were pooled. One portion of pooled blood (5 ml) was kept as an internal control and pretreated with the vehicle. The remaining blood (23 ml) was used for the in vitro exposure to E5555 at concentrations of 20 ng/ml, 50 ng/ml, and 100 ng/ml. […] The platelet aggregation studies, Rapid Analyzers measures, and flow cytometry preparations were initiated within no more than 110 minutes following the blood draw, incubation with the drug, and preparation of the samples.
(§3) Formation of platelet-leukocyte aggregates was assessed by dual labeling with pan-platelet marker (CD151), and then with CD14, the macrophage receptor for endotoxin lipopolysaccharides (PharMingen, and Coulter, San Diego, Calif., USA). The tubes were then covered with aluminum foil and incubated at 37° C. for 40 minutes with gentle rotation. After incubation, samples were immediately analyzed on a Becton Dickinson FACScan flow cytometer. The instrument was set up to measure forward light scatter, and FITC fluorescence. All parameters were collected using four-decade logarithmic amplification. The data was retrieved in list mode files and then analyzed. P selectin was expressed as percent positive cells. Other antigens were expressed as log mean fluorescence intensity.

PECAM-1 (CD31) [2] = assay: TRAP-stimulated whole blood flow cytometry, PECAM-1; conditions: Mean ± SD
Procedure: as §1, §2, §3
(§4) For flow cytometry (TRAP-stimulated) all of the above flow cytometry experiments were identically repeated utilizing prestimulation with 10 μmol/L TRAP for 5 minutes at 37° C. To determine statistics, a Paired Sign Test was used to define significance of differences between vehicle and E5555-treated groups. The Mann-Whitney U test was used to analyze nonparametric data. Normally distributed data were expressed as mean±standard error (m±SE), and skewed data as median (range). All P-values were two sided. All analysis was performed using the SPSS v9.0 program (SPSS Inc., Chicago, Ill.).

CD-40L (CD154) = assay: TRAP-stimulated whole blood flow cytometry, CD40-ligand; conditions: Mean ± SD
Procedure: as §1, §2, §3, §4

P-selectin (CD62p) = assay: TRAP-stimulated whole blood flow cytometry, P-selectin; conditions: Mean ± SD
Procedure: as §1, §2, §3, §4

SPAN-12 = assay: TRAP-stimulated whole blood flow cytometry, SPAN-12; conditions: Mean ± SD
Procedure: as §1, §2, §3, §4

[3] = E5555 20 ng/ml, Patients (ASA + C)
[4] = E5555 50 ng/ml, Patients (ASA + C)
[5] = E5555 100 ng/ml, Patients (ASA + C)
[6] = E5555 100 ng/ml, Patients (ASA)

For `Br.CCOc1cc2c(c(F)c1OCC)C(=N)N(CC(=O)c1cc(N3CCOCC3)c(OC)c(C(C)(C)C)c1)C2` [E5555, 1-(3-tert-butyl-4-methoxy-5-morpholinophenyl)-2-(5,6-diethoxy-7-fluoro-1-imino-1,3-dihydro-2H-isoindol-2-yl)ethanone hydrobromide], the “PECAM-1 expression, effect in words” value (PECAM-1 (CD31) [1]; overall summary, stimulation not stated) was “significant reduction”, the “PECAM-1 (CD31), Mean Fluorescence Intensity” value (“PECAM-1 (CD31)” for short) (PECAM-1 (CD31) [1]; [3]) was 55 ± 11 MFI and the “PECAM-1 (CD31)” value (PECAM-1 (CD31) [1]; E5555 20 ng/ml, Patients (ASA)) was 52 ± 9 MFI. For the same compound, the “PECAM-1 (CD31)” value (PECAM-1 (CD31) [1]; E5555 20 ng/ml, Volunteers) was 64 ± 10 MFI, the “PECAM-1 (CD31)” value (PECAM-1 (CD31) [1]; [4]) was 51 ± 9 MFI and the “PECAM-1 (CD31)” value (PECAM-1 (CD31) [1]; E5555 50 ng/ml, Patients (ASA)) was 53 ± 7 MFI. For the same compound, the “PECAM-1 (CD31)” value (PECAM-1 (CD31) [1]; E5555 50 ng/ml, Volunteers) was 60 ± 8 MFI, the “PECAM-1 (CD31)” value (PECAM-1 (CD31) [1]; [5]) was 54 ± 8 MFI and the “PECAM-1 (CD31)” value (PECAM-1 (CD31) [1]; [6]) was 57 ± 10 MFI. The “PECAM-1 (CD31)” value (PECAM-1 (CD31) [1]; E5555 100 ng/ml, Volunteers) was 64 ± 11 MFI, the “PECAM-1 (CD31)” value (PECAM-1 (CD31) [2]; [3]) was 58 ± 9 MFI and the “PECAM-1 (CD31)” value (PECAM-1 (CD31) [2]; E5555 20 ng/ml, Patients (ASA)) was 50 ± 6 MFI. The “PECAM-1 (CD31)” value (PECAM-1 (CD31) [2]; E5555 20 ng/ml, Volunteers) was 60 ± 9 MFI, the “PECAM-1 (CD31)” value (PECAM-1 (CD31) [2]; [4]) was 60 ± 7 MFI and the “PECAM-1 (CD31)” value (PECAM-1 (CD31) [2]; E5555 50 ng/ml, Patients (ASA)) was 54 ± 9 MFI. For the same compound, the “PECAM-1 (CD31)” value (PECAM-1 (CD31) [2]; E5555 50 ng/ml, Volunteers) was 55 ± 10 MFI, the “PECAM-1 (CD31)” value (PECAM-1 (CD31) [2]; [5]) was 57 ± 11 MFI and the “PECAM-1 (CD31)” value (PECAM-1 (CD31) [2]; [6]) was 52 ± 12 MFI. For the same compound, the “PECAM-1 (CD31)” value (PECAM-1 (CD31) [2]; E5555 100 ng/ml, Volunteers) was 60 ± 7 MFI, the “CD-40L (CD154), Mean Fluorescence Intensity” value (shortened to “CD-40L (CD154)”) (CD-40L (CD154); [3]) was 4.9 ± 0.5 MFI and the “CD-40L (CD154)” value (CD-40L (CD154); E5555 20 ng/ml, Patients (ASA)) was 5.2 ± 0.4 MFI. For the same compound, the “CD-40L (CD154)” value (CD-40L (CD154); E5555 20 ng/ml, Volunteers) was 6.3 ± 0.6 MFI, the “CD-40L (CD154)” value (CD-40L (CD154); [4]) was 4.0 ± 0.3 MFI and the “CD-40L (CD154)” value (CD-40L (CD154); E5555 50 ng/ml, Patients (ASA)) was 4.8 ± 0.5 MFI. The “CD-40L (CD154)” value (CD-40L (CD154); E5555 50 ng/ml, Volunteers) was 5.7 ± 0.6 MFI, the “CD-40L (CD154)” value (CD-40L (CD154); [5]) was 4.7 ± 0.5 MFI and the “CD-40L (CD154)” value (CD-40L (CD154); [6]) was 5.0 ± 0.8 MFI. For the same compound, the “CD-40L (CD154)” value (CD-40L (CD154); E5555 100 ng/ml, Volunteers) was 5.7 ± 0.4 MFI, the “P-selectin (CD62p), % positive cells” value (P-selectin (CD62p); [3]) was 11 ± 5 % positive cells and the “P-selectin (CD62p), % positive cells” value (P-selectin (CD62p); E5555 20 ng/ml, Patients (ASA)) was 22 ± 6 % positive cells. The “P-selectin (CD62p), % positive cells” value (P-selectin (CD62p); E5555 20 ng/ml, Volunteers) was 31 ± 8 % positive cells, the “P-selectin (CD62p), % positive cells” value (P-selectin (CD62p); [4]) was 8 ± 3 % positive cells and the “P-selectin (CD62p), % positive cells” value (P-selectin (CD62p); E5555 50 ng/ml, Patients (ASA)) was 15 ± 4 % positive cells. The “P-selectin (CD62p), % positive cells” value (P-selectin (CD62p); E5555 50 ng/ml, Volunteers) was 14 ± 3 % positive cells, the “P-selectin (CD62p), % positive cells” value (P-selectin (CD62p); [5]) was 3 ± 1 % positive cells and the “P-selectin (CD62p), % positive cells” value (P-selectin (CD62p); [6]) was 8 ± 4 % positive cells. The “P-selectin (CD62p), % positive cells” value (P-selectin (CD62p); E5555 100 ng/ml, Volunteers) was 11 ± 3 % positive cells, the “SPAN-12, Mean Fluorescence Intensity” value (SPAN-12; [3]) was 9 ± 2 MFI and the “SPAN-12, Mean Fluorescence Intensity” value (SPAN-12; E5555 20 ng/ml, Patients (ASA)) was 12 ± 4 MFI. For the same compound, the “SPAN-12, Mean Fluorescence Intensity” value (SPAN-12; E5555 20 ng/ml, Volunteers) was 20 ± 3 MFI and the “SPAN-12, Mean Fluorescence Intensity” value (SPAN-12; [4]) was 9 ± 3 MFI.
